The values below come from patent US12295951B2, “Compounds for use in a method of treating or preventing neurological and/or psychiatric disorders” (The Beckley Foundation, priority 2019, dated 2025).

For one experiment, the system named is Wistar Rats. Kind of experiment: Novel object preference test in rats. The experiment is classed as in vivo, rat. To be noted: for novel object preference: tested days after administration. Here is the method:
The effects of the test compound on cognitive functions in rodents, in particular on memory and learning capacity, were investigated using a novel object preference test (sometimes called “novel object recognition task”) according to the experimental design depicted in FIG. 1A. More specifically, the novel object preference test was carried out as follows:
Wistar Rats (outbred albino rats; Janvier Labs) sorted in different age groups, i.e. young (about 2 months), adult (about 9 months) and old (about 12-18 months), were administered with a saline solution (sodium chloride; 0.9% in water) or an aqueous solution of the test compound (LSD) by intraperitoneal injection (dose: 0.13 mg/kg).
Before the injection the animals were housed with other animals, and after the injection of the saline or test compound the animals were housed individually. For ten hours following the administration, the animals were video-recorded and stayed alone during the acute effects of the test compound (or saline). Then, the animals were allowed to recover for a period of 3 or 9 days.
After recovery, the animals were individually placed in an experiment arena (45×45×45 cm) once a day for 10 minutes over a period of 3 days (acclimatization session). The experiment arena as used herein typically includes two 3D printed bases located on the arena's floor 10 cm apart from each other, which are intended for mounting and fixing the test objects. However, said bases are empty during the acclimatization session.
Then, the 3D printed bases were mounted with the same number (i.e. 2) and type of objects (identical LEGO™ pieces each having 12 edges and 12 vertices). The animals were individually placed in the experiment arena and trained for 7 minutes (training session). At the onset of the training session, the animals were individually placed facing the same wall of the arena, with their backs to the objects.
The animals were removed from the arena and allowed to rest for 30 minutes. In the meantime, one of the objects was replaced by a new object having the same dimensions (height and base) as the previous object but a different shape (LEGO™ piece, 14 edges and 14 vertices). The animals were individually placed in the experiment arena for 3 minutes, and their preference for the novel object was evaluated by determining the time spent by the respective animals to explore the novel object (test session; FIG. 1B). At the onset of the test, the animals were individually placed facing the same wall of the arena, with their backs to the objects in a similar manner as during the training session.

A further experiment concerns Old animals (rats). Kind of experiment: Enriched environment test (LSD plus cognitive training) with novel object preference in old rats. In kind it is in vivo, rat. To be noted: 0.13 mg/kg for 1 day or 3 consecutive days, then enriched environment 6 days (3 h per day). The method, then: The potential of the test compound combined with a cognitive training to rescue cognitive functions (called “enriched environment”) was evaluated in old animals according to the experimental design depicted in FIG. 3A. More specifically, the enriched environment test was carried out as follows:
Old animal (about 12-18 months) were administered with saline (control group) or 0.13 mg/kg of test compound (LSD) for 1 day or 3 consecutive days, followed by exposure to an enriched environment for 6 consecutive days (3 hours each day). The enriched environment used herein typically consists of card boxes with 8 different rooms, wherein it is possible to find a variety of objects such as PVC tubes, toilet paper cardboard tubes or wood objects so as to stimulate the exploratory behavior. The animals were allowed to explore the enriched environment freely in groups of 3 to 5 animals. The effects of the test compound followed by the enriched environment were analyzed using one-way ANOVA, followed by Tukey HSD. The statistical analyses were performed using open source programming language R (version 3.6.0). The Mann-Whitney U test was used to compare the performance of old animals exposed to the enriched environment to that of old animals treated with saline and unexposed to the enriched environment.

Another experiment deals with healthy human subjects. Kind of experiment: Two-dimensional visuospatial location (memory) task in humans. The experiment is classed as in vivo. Particulars: single oral dose 50 μg (one subject 67.5 μg), final recall about 24 h after learning. The method, then:
The effects of the test compound (LSD) on cognitive functions in humans—e.g. memory, learning capacity—were investigated by means of a two-dimensional (2D) visuospatial location task in accordance with the experimental design depicted in FIG. 4A. Specifically, the visuospatial location task was carried out as follows:
Thirteen healthy human subjects learned the locations of 15 card pairs taking the test compound (LSD) or placebo in a two-run cross-over open-label design separated by two weeks. Seven subjects received 50 μg of test compound (orally) in the first run and placebo in the second run of the test. Six subjects received placebo in the first run and 50 μg of test compound (orally) in the second run of the test, except for one subject who received 67.5 μg of test compound in the second run. […]
For the two experimental runs, two parallel versions (versions A and B, respectively) of the task (matrix), each showing different pictures (card pairs) at different locations, were used. […] About 24 hours after the learning session, final recall of the memory task was evaluated in a single recall run (recall task). […] The percentage of correctly recalled card locations at final recall relative to the number of correct card locations during the last immediate recall run at learning was determined as the memory performance. […]

Experiment [1] concerns brain-derived neurotrophic factor (BDNF). Kind of experiment: BDNF blood serum levels in healthy volunteers (ELISA). Particulars: for BDNF AUC levels compared to placebo / Peak BDNF levels: serum; for BDNF AUC levels compared to placebo: 0-6 h. The experiment is classed as in vivo, human. The method, then:
The present double-blind placebo-controlled, within-subjects study aimed to investigate whether low doses (0, 5, 10, and 20 mcg) of LSD affect brain-derived neurotrophic factor (BDNF) blood levels in healthy volunteers. Blood samples were collected every two hours over a six-hour period, and BDNF levels were determined afterwards in blood serum.
Twenty-four recreational psychedelic users were included in this study. Prior to inclusion, participants underwent medical screening including standard blood chemistry, hematology and urinalysis. Inclusion criteria were written informed consent; age 18-40 years; previous experience with a psychedelic drug, but not within the past three months; proficient knowledge of the English language; good physical health; free from psychotropic medication; BMI between 18-28 kg/m^2. Exclusion criteria were history of drug abuse or addiction as assessed using the DSM-IV criteria; history of psychiatric and neurological disorders; previous experience with serious side effects to psychedelic drugs (anxiety or panic attacks); cardiovascular abnormalities; hypertension; psychotic disorder in first-degree relatives; tobacco smoking (>20 cigarettes/day; excessive alcohol (>20 alcoholic consumptions/week); pregnancy or lactation.
LSD doses used were 5, 10, and 20 mcg LSD base. LSD doses were dissolved in ethanol (96% Vol) resulting in a 1 mL volume and the placebo solution consisted of 1 mL of ethanol only. Test days were scheduled with a minimum of five days in between doses. A test day started at 9:00 AM with a screen for the presence of drugs of abuse in urine (THC/opiates/cocaine/amphetamines/methamphetamines), and alcohol in breath. Women were submitted to a urine pregnancy test. When tests were negative, a venous catheter was placed to draw blood and LSD or placebo was administered orally at 10:00 AM. The study was conducted according to the code of ethics on human experimentation established by the declaration of Helsinki (1964) and the World Medical Association (2013).
Blood samples were taken at −0.5 h, +2 h, +4 h and +6 h relative to drug administration; samples were centrifuged, and serum was transferred into a clean tube and frozen subsequently at −20° C. until analysis. BDNF determination was assessed using an ELISA kit (Biosensis Mature BDNF Rapid ELISA kit: human, mouse, rat; Thebarton, Australia) as described by Akinomoto et al. in Behavioural Brain Research 2019, 359, 342-352.
Therefore, only complete within-subjects (WS) cases entered analyses, using the statistical program SPSS (version 25.0). Non-parametric bootstrapped paired-samples t-tests with trapezoidal calculated AUC's as dependent variable were used for 5 mcg (N=10), 10 mcg (N=9), and 20 mcg (N=8), and corresponding placebo. Furthermore, LSD-placebo contrasts were examined using BDNF serum levels at 0 h, +2 h, +4 h and +6 h after dose administration using non-parametric bootstrapped paired samples t-tests. Lastly, to examine time effects per dose, non-parametric bootstrapped repeated measures ANOVA (0 h, +2 h, +4 h, and +6 h) was used, with subsequent non-parametric bootstrapped paired samples t-tests.
Background: ELISA stands for enzyme-linked immunosorbent assay.

`CCN(CC)C(=O)[C@@H]1C=C2c3cccc4[nH]cc(c34)C[C@H]2N(C)C1` [LSD, (D)-lysergic acid diethylamide]: the novel object preference entry with Wistar Rats (adult rats (about 9 months), 0.13 mg/kg i.p., saline baseline about 40%) is reported as “about 60%”; with Wistar Rats (young rats (about 2 months), 0.13 mg/kg i.p., saline baseline about 60%), “about 80%”. The “novel object preference (effect vs saline)” value with Wistar Rats (adult rats, FIG. 2) was “significantly increased”; with Wistar Rats (old rats (about 12-18 months), 0.13 mg/kg i.p.), “not significant”; with Wistar Rats (young rats, FIG. 2), “significantly increased”. Also, the “cognitive functions / novel object preference vs control group” value is given as “significant enhancement” in the experiment on Old animals (rats) and “significant increase” in the experiment on Old animals (rats) (listed as test compound). In addition, the “performance in the 2D visuospatial location task vs placebo” value in the experiment with healthy human subjects is “significantly improved”; with healthy human subjects (listed as test compound) it was “significantly increased”. Also, the “BDNF AUC levels compared to placebo” value was “significantly increased” in experiment [1] (5 mcg LSD oral, Z=−2.29, p=0.02); “significantly increased” in experiment [1] (10 mcg LSD oral, Z=−2.67, p<0.01); “significantly increased” in experiment [1] (20 mcg LSD oral, Z=−2.52, p<0.01). Moreover, the “Peak BDNF levels” value amounted to 8.95 ng/mL in experiment [1] (5 mcg LSD, peak at four hours after administration) and 8.28 ng/mL in experiment [1] (10 mcg LSD, peak at six hours after administration). Moreover, the “BDNF levels compared to placebo” value in experiment [1] (+4 h after 5 mcg LSD, Z=−2.80, p<0.01) was “higher”; in experiment [1] (+4 h after 10 mcg LSD, Z=−1.95, p=0.05), “higher”; in experiment [1] (+6 h after 5 mcg LSD, Z=−2.29, p<0.01), “higher”; in experiment [1] (+6 h after 20 mcg LSD, Z=−2.52, p=0.01) it was “higher”.
